Assay results: US8735345B2, “Therapeutic composition” (Hoffmann la Roche Inc., priority 2009, dated 2014)

Assays:
[1] = system: HCV replication; conditions: cited from earlier work
[2] = system: genotype 1 HCV; assay: HCV RNA viral load determination (COBAS AmpliPrep/COBAS TaqMan HCV Test) in a randomized, double-blind, placebo controlled, dose ranging study; type: in vivo, human; conditions: monotherapy 750 mg, bid; after 7 days of treatment
Method: A randomized, double-blind, placebo controlled, dose ranging study of Compound 1a and Compound 2 in adult patients with chronic hepatitis C genotype 1 was conducted. Approximately 54 treatment naïve males and females between 18 and 65 years of age (inclusive) with genotype 1 HCV infection who had not previously been treated with an interferon or investigational HCV therapeutic agent were enrolled. Approximately an additional 20 treatment patients who had failed treatment with the current standard of care (null, partial responders and relapsers) were enrolled. […] Subjects with liver cirrhosis or incomplete/transition to cirrhosis, or other forms of liver disease, anemia, HIV or HBV infection, hepatocellular carcinoma, cardiac disease or renal disease were excluded from this particular protocol, as well as pregnant or lactating women, women of childbearing potential, and male partners of women who are pregnant or lactating.
Seven groups, Groups I, II, III, IV, V, VI and VII, of subjects were studied. Blood samples were collected at time points to determine pharmacokinetics parameters, including Tmax, Cmax, Kel, T1/2, AUC, CL/F, Vd/F and accumulation ratio.
The specifics of Groups I, II, III, IV, V, VI and VII are shown in Table 1 below and pictorially in FIGS. 2 and 3. Group I included two arms with 8 subjects in Arm 1 and 8 subjects in Arm 2. […]

Compound | inhibition of HCV replication [1] | mean log change from baseline in HCV RNA viral load [2]
CC(C)(C)OC(=O)N[C@H]1CCCCCC=C[C@@H]2C[C@@]2(C(=O)NS(=O)(=O)C2CC2)NC(=O)[C@@H]2C[C@@H](OC(=O)N3Cc4cccc(F)c4C3)CN2C1=O [Compound 2, (1S,4R,6S,14S,18R)-4-Fluoro-1,3-dihydro-isoindole-2-carboxylic acid 14-tert-butoxycarbonylamino-4-cyclopropanesulfonylaminocarbonyl-2,15-dioxo-3,16-diaza-tricyclo[14.3.0.04,6]nonadec-7-en-18-yl ester] | effective in inhibiting HCV replication | –
diisobutyl ester prodrug of β-D-2′-deoxy-2′-fluoro-2′-C-methylcytidine [Compound 1a] | – | −1.3 log IU/mL
C[C@@]1(F)[C@H](O)[C@@H](CO)O[C@H]1n1ccc(N)nc1=O [Compound 1, β-D-2′-deoxy-2′-fluoro-2′-C-methylcytidine] | effective in inhibiting HCV replication | –
